Assay [1] concerns Wnt activity (Wnt-responsive human Sp5 promoter, TCF/LEF binding sites) in SW480 colon carcinoma cells. As to the kind of experiment: Wnt activity screening assay: Sp5-Luc luciferase reporter gene in SW480 cells. The class given is cell-based. The note with it: for pEC50: 10-point dose-response from 10 μM, incubated overnight. Summed up:
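Luminescence read-out (BrightGlo) from stable Sp5-Luc SW480 cells, normalized to DMSO-only wells. Cells were treated overnight at 37° C in 1% FBS medium across a 1:3, 10-point series starting at 10 μM. EC50 from variable-slope four-parameter regression; percent inhibition at 10 μM given where EC50 >10 μM.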
(In general: A reporter such as luciferase makes a cellular process visible.)

For assay [2], the system named is primary human mesenchymal stem cells (hMSCs). As to the kind of experiment: Induction of chondrogenesis in hMSCs (nodule area, Rhodamine B / Nile Red). The settings on record: TGF-β3 as positive control; for Emax: read-out: Max. Activity as % TGF-β3 activity; for EC50: concentration required to induce 50% levels of chondrogenesis, read-out: Conc (nM) of 50% TGF-β3 activity. In kind it is cell-based. The procedure:
Representative compounds were screened using primary human mesenchymal stem cells (hMSCs) to determine their ability to induce chondrogenesis (process by which cartilage is developed).
Primary human mesenchymal stem cells (hMSCs) were purchased from Lonza (Walkersville, Md.) and expanded in Mesenchymal Stem Cell Growth Media (Lonza). Cells between passage 3 and 6 were used for the experiments.
Each compound was dissolved in DMSO as a 10 mM stock and used to prepare compound source plates. For the 96 well assay, serial dilution (1:3, 6-point dose-response curves from 2700 nM to 10 nM) and compound transfer was performed using the ECHO 550 (Labcyte, Sunnyvale, Calif.) into 96-well clear bottom assay plates (Greiner Bio-One) with appropriate DMSO backfill for a final DMSO concentration of 0.03%. hMSCs were plated at 20,000 cells/well in 250 μL/well Incomplete Chondrogenic Induction Medium (Lonza; DMEM, dexamethasone, ascorbate, insulin-transferrin-selenium [ITS supplement], gentamycin-amphotericin [GA-1000], sodium pyruvate, proline and L-glutamine). TGF-β3 (10 ng/mL) was used as a positive control for differentiation while negative control wells were treated with 75 nL DMSO for normalization and calculating EC50 values. For the 384 well assay, serial dilution (1:3, 8-point dose-response curves from 5000 nM to 2.2 nM) and compound transfer was performed using the ECHO 550 (Labcyte, Sunnyvale, Calif.) into 384-well clear bottom assay plates (Greiner Bio-One) with appropriate DMSO backfill for a final DMSO concentration of 0.03%. hMSCs were plated at 8,000 cells/well in 80 μL/well Incomplete Chondrogenic Induction Medium (Lonza; DMEM, dexamethasone, ascorbate, insulin-transferrin-selenium [ITS supplement], gentamycin-amphotericin [GA-1000], sodium pyruvate, proline and L-glutamine). TGF-β3 (10 ng/mL) was used as a positive control for differentiation while negative control wells were treated with 25 nL DMSO for normalization and calculating EC50 values. Cells were incubated at 37° C. and 5% CO2 for 6 days. To image chondrogenic nodules, the cells were fixed using 4% formaldehyde (Electron Microscopy Sciences), and stained with 2 μg/mL Rhodamine B (Sigma-Aldrich) and 20 μM Nile Red (Sigma-Aldrich) [Johnson K., et. al, A Stem Cell-Based Approach to Cartilage Repair, Science, (2012), 336(6082), 717-721]. The nodules imaged (25 images per well for 96 well plates and 9 images per well for 384 well plates at 10× magnification) by excitation at 531 nm and emission at 625 nm and quantified using the CellInsight CX5 (Thermo Scientific). Area of nodules in each well was normalized to the average of 3 DMSO treated wells on the same plate using Excel (Microsoft Inc.). The normalized averages (fold change over DMSO) of 2 or 3 replicate wells for each compound concentration were calculated. Due to solubility limitations of some of the compounds, curve fitting was incomplete leading to inaccurate EC50 determinations.
Using TGF-β3 as a positive control, the concentration of representative compounds required to induce 50% levels of chondrogenesis is reported. In addition, the maximum activity of each compound and the respective dose that each compound reached maximum chondrogenesis activity is reported.

What is called pEC50 is the negative decadic logarithm of the EC50, by convention in mol/L. A low value points to a large EC50. One may read the inhibition as the percentage by which the read-out fell short of the control.

pEC50: −log10 of the molar value.

In the case of `CN(C)CC(=O)Nc1cncc(-c2ccc3[nH]nc(-c4nc5c(-c6cccc(F)c6)nccc5[nH]4)c3n2)c1` [Compound 969, 2-(Dimethylamino)-N-(5-(3-(4-(3-fluorophenyl)-1H-imidazo[4,5-c]pyridin-2-yl)-1H-pyrazolo[4,3-b]pyridin-5-yl)pyridin-3-yl)acetamide], in assay [1], the pEC50 was 5.51. For the same compound, in assay [2], the Emax turned out to be 63% and the EC50 was determined as 7 nM.
The like results for `CC(C)Nc1cncc(-c2ccc3[nH]nc(-c4nc5c(-c6cccnc6)nccc5[nH]4)c3n2)c1` [Compound 96, N-Isopropyl-5-(3-(4-(pyridin-3-yl)-1H-imidazo[4,5-c]pyridin-2-yl)-1H-pyrazolo[4,3-b]pyridin-5-yl)pyridin-3-amine] were, in that order, 6.00, 54% and 10 nM.
In the case of `CCC(=O)Nc1cncc(-c2ccc3[nH]nc(-c4nc5c(N6CCCCC6)nccc5[nH]4)c3n2)c1` [Compound 169, N-(5-(3-(4-(Piperidin-1-yl)-1H-imidazo[4,5-c]pyridin-2-yl)-1H-pyrazolo [4,3-b]pyridin-5-yl)pyridin-3-yl)propionamide], in assay [1], the pEC50 is 5.38. Besides, in assay [2], the Emax stood at 69% and the EC50 turned out to be 30 nM.
For the compound `FC1(F)CCN(Cc2cncc(-c3ccc4[nH]nc(-c5nc6c(-c7ccsc7)nccc6[nH]5)c4n3)c2)C1` [Compound 306, 5-(5-((3,3-difluoropyrrolidin-1-yl)methyl)pyridin-3-yl)-3-(4-(thiophen-3-yl)-1H-imidazo[4,5-c]pyridin-2-yl)-1H-pyrazolo[4,3-b]pyridine], the pEC50 in assay [1] was 5.99. For the same compound, in assay [2], the Emax amounted to 53% and the EC50 is 100 nM.
`Cc1cn(-c2nccc3[nH]c(-c4n[nH]c5ccc(-c6cncc(NC(=O)CC(C)C)c6)nc45)nc23)cn1` [Compound 198] had a pEC50 in assay [1] of 5.40. In assay [2], the Emax stood at 69% and the EC50 worked out at 30 nM.
`CC(C)(C)C(=O)Nc1cncc(-c2ccc3[nH]nc(-c4nc5c(-c6ccc(Cl)s6)nccc5[nH]4)c3n2)c1` [Compound 1043, N-(5-(3-(4-(5-Chlorothiophen-2-yl)-1H-imidazo[4,5-c]pyridin-2-yl)-1H-pyrazolo[4,3-b]pyridin-5-yl)pyridin-3-yl)pivalamide] gave a pEC50 in assay [1] of 5.97. In assay [2], the Emax was 67% and the EC50 turned out to be 10 nM.
For `c1cncc(-c2ccc3[nH]nc(-c4nc5c(-c6cccnc6)nccc5[nH]4)c3n2)c1` [Compound 88, 5-(Pyridin-3-yl)-3-(4-(pyridin-3-yl)-1H-imidazo[4,5-c]pyridin-2-yl)-1H-pyrazolo[4,3-b]pyridine], the pEC50 in assay [1] is under 5.00. For the same compound, the inhibition at 10 µM in assay [1] (given for EC50 of >10 μM, 10 μM, read-out: percent inhibition at 10 μM) is 34.4%. In assay [2], the Emax worked out at 70% and the EC50 turned out to be 100 nM.

These data come from US10195185B2, “3-(1H-imidazo[4,5-C]pyridin-2-yl)-1H-pyrazolo[4,3-B]pyridines and therapeutic uses thereof” (Samumed, LLC, priority 2015, dated 2019).
